Laboratory results taken from PubChem BioAssay AID2060883 (Molecular Pharmacology Branch, DTP, NCI, 2025).
Where “and” joins values, the source holds several entries; their conditions need not be identical. Equal values may be shown once.

Tested on: 843782-103-R-J1-PDC complex spheroid viability
Experiment: Anticancer human tumor 843782-103-R-J1-PDC patient-derived lung adenocarcinoma cell line growth inhibition [RAS]
Details: for viability, T/C: stronger effect = lower value
In short: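 Multi-cell-type spheroids: tumor cells plus HUVEC endothelial cells and mesenchymal stem cells. RAS-pathway inhibitors were combined with targeted agents, each dosed in half-log steps down from clinical Cmax, or from 10 microM when Cmax was unknown.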

[1] = curve of first compound, second compound 0.000949 µM
[2] = curve of first compound, second compound 0.003 µM
[3] = curve of first compound, second compound 0.00949 µM
[4] = curve of first compound, second compound 0.03 µM
[5] = curve of first compound, second compound 0.0949 µM
[6] = curve of first compound, second compound 0.3 µM
[7] = second compound 0.000949 µM, first compound 0.0316 µM
[8] = second compound 0.000949 µM, first compound 0.1 µM
[9] = second compound 0.000949 µM, first compound 0.316 µM
[10] = second compound 0.000949 µM, first compound 1 µM
[11] = second compound 0.003 µM, first compound 0.0316 µM
[12] = second compound 0.003 µM, first compound 0.1 µM
[13] = second compound 0.003 µM, first compound 0.316 µM
[14] = second compound 0.003 µM, first compound 1 µM
[15] = second compound 0.00949 µM, first compound 0.0316 µM
[16] = second compound 0.00949 µM, first compound 0.1 µM
[17] = second compound 0.00949 µM, first compound 0.316 µM
[18] = second compound 0.00949 µM, first compound 1 µM
[19] = second compound 0.03 µM, first compound 0.0316 µM
[20] = second compound 0.03 µM, first compound 0.1 µM
[21] = second compound 0.03 µM, first compound 0.316 µM
[22] = second compound 0.03 µM, first compound 1 µM
[23] = second compound 0.0949 µM, first compound 0.0316 µM
[24] = second compound 0.0949 µM, first compound 0.1 µM
[25] = second compound 0.0949 µM, first compound 0.316 µM
[26] = second compound 0.0949 µM, first compound 1 µM
[27] = second compound 0.3 µM, first compound 0.0316 µM
[28] = second compound 0.3 µM, first compound 0.1 µM
[29] = second compound 0.3 µM, first compound 0.316 µM
[30] = second compound 0.3 µM, first compound 1 µM
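Also: viability read after seven days of compound exposure.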

CCC(CC)c1cc(NC2CCC(N)C2)n2nccc2n1 (stereo not drawn) + CCn1c(-c2cc(N3CCN(C)CC3)cnc2C(C)OC)c2c3cc(ccc31)-c1csc(n1)CC(NC(=O)C1CC1C)C(=O)N1CCCC(N1)C(=O)OCC(C)(C)C2
IC50 [1]: 591 nM
IC50 [2]: 406 nM
IC50 [3]: < 31.6 nM
IC50 [4]: < 31.6 nM
IC50 [5]: < 31.6 nM
IC50 [6]: < 31.6 nM
viability, T/C [7]: 75.2%
viability, T/C [8]: 76.5%
viability, T/C [9]: 72.7%
viability, T/C [10]: 30.7%
viability, T/C (second compound 0.000949 µM, first compound 3.16 µM): 0.47%
viability, T/C (second compound 0.000949 µM, first compound 10 µM): 0.37%
viability, T/C [11]: 53.5%
viability, T/C [12]: 53.9%
viability, T/C [13]: 58.1%
viability, T/C [14]: 31.4%
viability, T/C (second compound 0.003 µM, first compound 3.16 µM): 0.26%
viability, T/C (second compound 0.003 µM, first compound 10 µM): 0.35%
viability, T/C [15]: 30.6%
viability, T/C [16]: 34.3%
viability, T/C [17]: 36.8%
viability, T/C [18]: 17.1%
viability, T/C (second compound 0.00949 µM, first compound 3.16 µM): 0.17%
viability, T/C (second compound 0.00949 µM, first compound 10 µM): 0.29%
viability, T/C [19]: 21.9%
viability, T/C [20]: 19%
viability, T/C [21]: 21.2%
viability, T/C [22]: 15.5%
viability, T/C (second compound 0.03 µM, first compound 3.16 µM): 0.09%
viability, T/C (second compound 0.03 µM, first compound 10 µM): 0.27%
viability, T/C [23]: 15.7%
viability, T/C [24]: 15%
viability, T/C [25]: 16.8%
viability, T/C [26]: 14.7%
viability, T/C (second compound 0.0949 µM, first compound 3.16 µM): 0.52%
viability, T/C (second compound 0.0949 µM, first compound 10 µM): 0.34%
viability, T/C [27]: 15%
viability, T/C [28]: 14.2%
viability, T/C [29]: 14.8%
viability, T/C [30]: 13.4%
viability, T/C (second compound 0.3 µM, first compound 3.16 µM): 0.25%
viability, T/C (second compound 0.3 µM, first compound 10 µM): 0.53%

C=CC(=O)N1CCN(c2nc(OCC3CCCN3C)nc3c(F)c(-c4nc(N)cc(C)c4C(F)(F)F)c(Cl)cc23)C(C)C1 (stereo not drawn) + CCn1c(-c2cccnc2C(C)OC)c2c3cc(ccc31)N1CCOC(CC(NC(=O)C(C(C)C)N(C)C(=O)C3(F)CCN(C(=O)C#CC(C)(C)N(C)C)CC3)C(=O)N3CCCC(N3)C(=O)OCC(C)(C)C2)C1
IC50 [1]: > 1000 nM
IC50 [2]: > 1000 nM
IC50 [3]: > 1000 nM
IC50 [4]: > 1000 nM
IC50 [5]: > 1000 nM
IC50 [6]: > 1000 nM
viability, T/C (second compound 0.000949 µM, first compound 0.00316 µM): 80.5%
viability, T/C (second compound 0.000949 µM, first compound 0.01 µM): 67.2%
viability, T/C [7]: 75.9%
viability, T/C [8]: 77.9%
viability, T/C [9]: 72.8%
viability, T/C [10]: 78.5%
viability, T/C (second compound 0.003 µM, first compound 0.00316 µM): 71.4%
viability, T/C (second compound 0.003 µM, first compound 0.01 µM): 69.3%
viability, T/C [11]: 77.7%
viability, T/C [12]: 81.6%
viability, T/C [13]: 78.3%
viability, T/C [14]: 74.4%
viability, T/C (second compound 0.00949 µM, first compound 0.00316 µM): 63.6%
viability, T/C (second compound 0.00949 µM, first compound 0.01 µM): 62.4%
viability, T/C [15]: 77.5%
viability, T/C [16]: 80.1%
viability, T/C [17]: 88.1%
viability, T/C [18]: 74.4%
viability, T/C (second compound 0.03 µM, first compound 0.00316 µM): 82.4%
viability, T/C (second compound 0.03 µM, first compound 0.01 µM): 71.6%
viability, T/C [19]: 71.5%
viability, T/C [20]: 75.4%
viability, T/C [21]: 82.5%
viability, T/C [22]: 69.4%
viability, T/C (second compound 0.0949 µM, first compound 0.00316 µM): 81.6%
viability, T/C (second compound 0.0949 µM, first compound 0.01 µM): 75.9%
viability, T/C [23]: 77.6%
viability, T/C [24]: 79.7%
viability, T/C [25]: 77.7%
viability, T/C [26]: 77%
viability, T/C (second compound 0.3 µM, first compound 0.00316 µM): 65.4%
viability, T/C (second compound 0.3 µM, first compound 0.01 µM): 69.2%
viability, T/C [27]: 61.2%
viability, T/C [28]: 70.7%
viability, T/C [29]: 68%
viability, T/C [30]: 69.6%

CC(C)NCC(C(=O)N1CCN(c2ncnc3c2C(C)CC3O)CC1)c1ccc(Cl)cc1 (stereo not drawn)
viability, T/C (compound 0.0316 µM): 106% (2×) and 97% and 95.9%
viability, T/C (compound 0.1 µM): 96.2% [middle of 4 runs]
viability, T/C (compound 0.316 µM): 92.3% [middle of 4 runs]
viability, T/C (compound 1 µM): 62.4% [middle of 4 runs]
viability, T/C (compound 3.16 µM): 30% [middle of 4 runs]
viability, T/C (compound 10 µM): 13.7% [middle of 4 runs]
IC50 (curve of compound): 1.54 µM [middle of 4 runs]

C=CC(=O)Nc1cc(Nc2nccc(-c3cn(C)c4ccccc34)n2)c(OC)cc1N(C)CCN(C)C
viability, T/C (compound 0.00316 µM): 101% [middle of 4 runs]
viability, T/C (compound 0.01 µM): 99.7% [middle of 4 runs]
viability, T/C (compound 0.0316 µM): 95.9% [middle of 4 runs]
viability, T/C (compound 0.1 µM): 102% (2×) and 84% and 95.2%
viability, T/C (compound 0.316 µM): 91.4% [middle of 4 runs]
viability, T/C (compound 1 µM): 68% [middle of 4 runs]
IC50 (curve of compound): > 1000 nM
